# From patent publication US11214803B2, “Modulators of YAP1 expression” (Ionis Pharmaceuticals, Inc., priority 2019, dated 2022)
# Strand notation (5' to 3'): a small letter for the sugar, then the base; units joined by * are phosphorothioate-linked, units joined directly phosphodiester-linked; [ ] holds rarer units or linkages, { } end groups; capitals alone tell only the bases. e = 2'-O-(2-methoxyethyl) (MOE); k = constrained ethyl (cEt); [5mC] = 5-methylcytosine; d = 2'-deoxy (DNA); m = 2'-O-methyl
# Tested on: Yap1 mRNA
# Assay: Antisense inhibition of human Yap1 in SNU-449 cells by modified oligonucleotides, single dose (Example 5, RTS36584)
# Format: cell-based
# In short: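 Each modified oligonucleotide is applied by free uptake to SNU-449 cultures at 2,000 nM, and total RNA is harvested around 48 h later. Yap1 transcript, quantified with the RTS36584 set and corrected for RIBOGREEN RNA content, is given as % UTC. Asterisks mark sequences overlapping the amplicon.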
# [1] = Table 52, Yap1 mRNA, modified oligonucleotides targeting SEQ ID NO: 1 and 2
# [2] = Table 46, Yap1 mRNA as percent of untreated control, SNU-449 cells, single dose
# [3] = Table 42 (separate experiment), SNU-449 cells, 10,000 cells per well, free uptake, 2,000 nM modified oligonucleotide, approximately 48 hours, RTS36584, normalized to RIBOGREEN, Yap1 mRNA relative to untreated control cells
# [4] = Table 50, Yap1 mRNA remaining as percent of untreated control (UT), SNU-449 cells, single dose
# [5] = Table 40 (separate experiment), SNU-449 cells, 10,000 cells per well, free uptake, 2,000 nM oligonucleotide, approx. 48 hours, RTS36584, normalized to RIBOGREEN, Yap1 mRNA relative to untreated control
# [6] = Table 45, Yap1 mRNA as percent of untreated control, SNU-449 cells, single dose
# [7] = Table 51, Yap1 mRNA remaining as percent of untreated control (UT), SNU-449 cells, single dose
# [8] = Table 39, SNU-449 cells, 10,000 cells per well, free uptake, 2,000 nM oligonucleotide, approx. 48 hours, RTS36584, normalized to RIBOGREEN, Yap1 mRNA relative to untreated control
# [9] = Yap1 mRNA, percent of untreated control, modified oligonucleotides targeting SEQ ID NO: 1 and 2, Table 47
# [10] = Table 44 experiment, SNU-449 cells, 10,000 cells per well, free uptake, 2,000 nM, approximately 48 hours, RTS36584, Yap1 mRNA normalized to RIBOGREEN, relative to untreated control cells
# [11] = Table 41, SNU-449 cells, 10,000 cells per well, free uptake, 2,000 nM modified oligonucleotide, approximately 48 hours, RTS36584, normalized to RIBOGREEN, Yap1 mRNA relative to untreated control cells
# [12] = Table 49, Yap1 mRNA level relative to untreated control, modified oligonucleotides targeting SEQ ID NO.: 1 and 2
substance,measurement,setting,value
1200788 (kG*kA*kA*dA*dT*mU*dG*dT*d[5mC]*dT*d[5mC]*dA*dT*kG*k[5mC]*k[5mC]; antisense) [Compound 1200788],YAP1 (% UT),[1],19 % UT
1200817 (kA*kG*k[5mC]*dA*d[5mC]*mU*dT*dT*dT*dA*d[5mC]*dA*dT*kT*kA*kG; antisense) [Compound 1200817],YAP1 (% UT),[1],38 % UT
1198830 (kA*k[5mC]*dT*dT*dT*dT*dA*d[5mC]*dA*dT*dT*kA*eG*kG*eA*kA) [Compound 1198830],YAP1 (% UT),[2],37 % UT
1095483 (antisense k[5mC]*kA*d[5mC]*dT*dG*dA*dG*dG*dT*dA*dT*dA*kA*e[5mC]*kT*eG) [Compound 1095483],YAP1 (% UTC),[3],101 % UTC
1198223 (k[5mC]*kT*dT*dT*dT*dA*d[5mC]*dA*dT*dT*dA*eG*eG*eA*kA*k[5mC]) [Compound 1198223],YAP1 (% UTC),[3],94 % UTC
1198598 (antisense kA*kA*k[5mC]*dT*d[5mC]*dT*dT*dA*dT*dA*dT*dG*kG*kT*kT*eT) [Compound 1198598],YAP1 (% UT),[4],76 % UT
1198439 (kA*dG*dT*dG*dT*dA*dT*dG*dT*d[5mC]*dA*kG*eA*kA*eG*kA; antisense) [Compound 1198439],YAP1 (% UTC),[5],6 % UTC
1198951 (kA*kA*dT*dA*dT*dT*dG*d[5mC]*dA*dA*dT*k[5mC]*dT*kG*dT*k[5mC]; antisense) [Compound 1198951],YAP1 (% UTC),[6],81 % UTC
1197296 (kT*kG*k[5mC]*dT*mU*dT*dG*dG*dA*dA*dG*dA*dT*k[5mC]*kT*kG) [Compound 1197296],YAP1 (% UT),[7],36 % UT
1198419 (kA*dT*dT*d[5mC]*dA*dG*dA*dT*dT*dT*dA*kG*eG*kA*eT*kG; antisense) [Compound 1198419],YAP1 (% UTC),[8],78 % UTC
1197288 (kT*k[5mC]*kT*dA*mU*dA*dT*dT*dA*dG*dA*dG*dT*kA*kT*kG; antisense) [Compound 1197288],YAP1 (% UT),[4],94 % UT
1198711 (kG*kA*d[5mC]*dT*dA*dA*dG*dT*dA*dA*dG*dG*kT*eT*kT*e[5mC]; antisense) [Compound 1198711],YAP1 (% UTC),[3],60 % UTC
1200801 (kT*k[5mC]*kT*dA*dT*mA*dT*dT*dA*dG*dA*dG*dT*kA*kT*kG; antisense) [Compound 1200801],YAP1 (% UT),[7],77 % UT
1198874 (kA*kA*dG*dT*dG*dT*dA*dT*dG*dT*d[5mC]*kA*eG*kA*eA*kG) [Compound 1198874],YAP1 (% UT),[9],2 % UT
1198204 (kT*kG*dG*dA*dA*dA*dT*dT*dG*dT*d[5mC]*eT*e[5mC]*eA*kT*kG; antisense) [Compound 1198204],YAP1 (% UTC),[3],31 % UTC
1197212 (antisense kT*kT*kT*dA*dT*dG*dT*dA*dA*dT*dA*dT*dT*kG*k[5mC]*kA) [Compound 1197212],YAP1 (% UT),[9],55 % UT
1197240 (antisense k[5mC]*kT*kG*dA*mG*dG*dT*dA*dT*dA*dA*d[5mC]*dT*kG*kG*kG) [Compound 1197240],YAP1 (% UT),[7],58 % UT
1198490 (antisense kT*kT*dT*dG*dG*dA*dA*dG*dA*dT*d[5mC]*eT*kG*eA*kA*eA) [Compound 1198490],YAP1 (% UTC),[10],53 % UTC
1198738 (kA*e[5mC]*kT*dG*dA*dG*dG*dT*dA*dT*dA*dA*e[5mC]*eT*kG*kG; antisense) [Compound 1198738],YAP1 (% UTC),[11],38 % UTC
1198735 (kG*eA*kG*dG*dT*dA*dT*dA*dA*d[5mC]*dT*dG*eG*eG*k[5mC]*kA; antisense) [Compound 1198735],YAP1 (% UTC),[11],34 % UTC
1198629 (kA*kT*dT*dG*dT*d[5mC]*dT*d[5mC]*dA*dT*dG*d[5mC]*k[5mC]*eT*kT*eA; antisense) [Compound 1198629],YAP1 (% UTC),[11],22 % UTC
1198829 (k[5mC]*kT*dT*dT*dT*dA*d[5mC]*dA*dT*dT*dA*kG*eG*kA*eA*k[5mC]; antisense) [Compound 1198829],YAP1 (% UT),[2],36 % UT
1095567 (antisense k[5mC]*kA*k[5mC]*dT*dG*dA*dG*dG*dT*dA*dT*dA*kA*e[5mC]*kT*eG) [Compound 1095567],YAP1 (% UT),[12],92 % UT
1198856 (k[5mC]*kT*dT*dA*dT*dA*dT*dG*dG*dT*dT*kT*eT*kG*eT*kG; antisense) [Compound 1198856],YAP1 (% UT),[2],20 % UT
1200837 (kA*kT*kT*d[5mC]*dA*mG*dA*dT*dT*dT*dA*dG*dG*kA*kT*kG; antisense) [Compound 1200837],YAP1 (% UT),[1],82 % UT
1198849 (kG*kA*dT*dT*dT*dA*dG*dG*dA*dT*dG*k[5mC]*eA*kT*eG*kG; antisense) [Compound 1198849],YAP1 (% UT),[2],42 % UT
1200811 (kT*kT*kA*d[5mC]*dA*mU*dT*dA*dG*dG*dA*dA*d[5mC]*kA*kA*kG; antisense) [Compound 1200811],YAP1 (% UT),[1],62 % UT
1198395 (k[5mC]*dT*dT*dT*dT*dA*d[5mC]*dA*dT*dT*dA*kG*eG*kA*eA*k[5mC]; antisense) [Compound 1198395],YAP1 (% UTC),[8],35 % UTC
"1197262 (A_{ks}A_{ks}^{m}C_{ks}T_{ds}C_{ys}T_{ds}T_{ds}A_{ds}T_{ds}A_{ds}T_{ds}G_{ds}G_{ds}T_{ks}T_{ks}T_{k}; as printed in the source, key not given here) [Compound 1197262]",YAP1 (% UT),[7],89 % UT
1198653 (k[5mC]*kT*dT*dT*dT*dA*d[5mC]*dA*dT*dT*dA*dG*kG*eA*kA*e[5mC]; antisense) [Compound 1198653],YAP1 (% UTC),[11],64 % UTC
1198257 (kA*dT*dT*dG*d[5mC]*dA*dA*dT*d[5mC]*dT*dG*eT*e[5mC]*eT*kG*kA; antisense) [Compound 1198257],YAP1 (% UTC),"Table 43 experiment, SNU-449 cells, 10,000 cells per well, free uptake, 2,000 nM, approximately 48 hours, RTS36584, Yap1 mRNA normalized to RIBOGREEN, relative to untreated control cells",85 % UTC
1198443 (kT*dT*dA*dA*dA*dG*dT*dG*dT*dA*dT*kG*eT*k[5mC]*eA*kG; antisense) [Compound 1198443],YAP1 (% UTC),[5],39 % UTC
1197208 (antisense kT*kA*kA*dT*dA*dT*dT*dG*d[5mC]*dA*dA*dT*d[5mC]*kT*kG*kT) [Compound 1197208],YAP1 (% UT),[9],66 % UT
1197260 (kT*kT*kA*dT*mA*dT*dG*dG*dT*dT*dT*dT*dG*kT*kG*kT) [Compound 1197260],YAP1 (% UT),[7],65 % UT
1198504 (kT*k[5mC]*dA*dG*dA*dT*dT*dT*dA*dG*dG*eA*kT*eG*k[5mC]*eA; antisense) [Compound 1198504],YAP1 (% UTC),[10],15 % UTC
1198533 (kT*kA*dA*dG*dG*dT*dT*dT*d[5mC]*d[5mC]*d[5mC]*eA*kG*eA*kT*eT; antisense) [Compound 1198533],YAP1 (% UTC),[10],35 % UTC
1198736 (kT*eG*kA*dG*dG*dT*dA*dT*dA*dA*d[5mC]*dT*eG*eG*kG*k[5mC]; antisense) [Compound 1198736],YAP1 (% UTC),[11],20 % UTC
1200824 (kG*k[5mC]*kT*dT*dT*mG*dG*dA*dA*dG*dA*dT*d[5mC]*kT*kG*kA; antisense) [Compound 1200824],YAP1 (% UT),[1],43 % UT
1198715 (kA*eT*kT*dG*dT*d[5mC]*dT*d[5mC]*dA*dT*dG*d[5mC]*e[5mC]*eT*kT*kA; antisense) [Compound 1198715],YAP1 (% UTC),[5],33 % UTC
1198551 (antisense kA*kG*kT*dA*dT*dG*dT*dG*dG*d[5mC]*dA*dA*kT*kA*kA*eT) [Compound 1198551],YAP1 (% UT),[12],34 % UT
1198541 (antisense kT*kT*dA*dG*dA*d[5mC]*dT*dA*dA*dG*dT*eA*kA*eG*kG*eT) [Compound 1198541],YAP1 (% UTC),[10],34 % UTC
1198962 (kT*kA*dA*dA*dG*dT*dG*dT*dA*dT*dG*kT*d[5mC]*kA*dG*kA; antisense) [Compound 1198962],YAP1 (% UTC),[6],52 % UTC
1198806 (antisense kA*kA*dT*dT*dG*dT*d[5mC]*dT*d[5mC]*dA*dT*kG*e[5mC]*k[5mC]*eT*kT) [Compound 1198806],YAP1 (% UT),[2],33 % UT
1198644 (kT*kA*dT*dA*dT*dT*dA*dG*dA*dG*dT*dA*kT*eG*kT*eG; antisense) [Compound 1198644],YAP1 (% UTC),[11],73 % UTC
1198609 (antisense kT*kT*kT*dA*dT*dG*dT*dA*dA*dT*dA*dT*kT*kG*k[5mC]*eA) [Compound 1198609],YAP1 (% UT),[4],52 % UT
1198884 (kT*kA*dA*dG*dT*dA*dA*dG*dG*dT*dT*kT*e[5mC]*k[5mC]*e[5mC]*kA; antisense) [Compound 1198884],YAP1 (% UT),[2],28 % UT
1198545 (antisense kA*kA*kA*dT*dT*dG*dT*d[5mC]*dT*d[5mC]*dA*dT*kG*k[5mC]*k[5mC]*eT) [Compound 1198545],YAP1 (% UT),[12],32 % UT
1198896 (kT*kG*dG*dA*dA*dA*dT*dT*dG*dT*d[5mC]*kT*d[5mC]*kA*dT*kG; antisense) [Compound 1198896],YAP1 (% UTC),[6],59 % UTC
